Reference: ChEMBL document CHEMBL5500372, “Novel natural osthole-inspired amphiphiles as membrane targeting antibacterials against methicillin-resistant Staphylococcus aureus (MRSA)” (Eur J Med Chem, 2024)
Active and inactive are the calls of the source.

Experiments:
Staphylococcus aureus [1] = assay: Antibacterial activity against methicillin-resistant Staphylococcus aureus clinical isolate 16 infected in female KM mouse skin abscess model assessed as reduction in bacterial load at 5 mg/kg, sc measured after 24 hrs relative to control; format: functional; set-up: scale not given: the % may be the effect or the level left
[2] = Toxicity in female KM mouse skin abscess model infected with methicillin-resistant Staphylococcus aureus clinical isolate 16 assessed as histological abnormalities in kidney at 5 mg/kg, sc measured after 24 hrs by H and E staining based analysis; format: organism-based; settings: in vivo
Staphylococcus aureus [3] = assay: Antibacterial activity against methicillin-resistant Staphylococcus aureus clinical isolate 16 infected in female KM mouse skin abscess model assessed as reduction in number of MRSA cells at 5 mg/kg, sc measured after 24 hrs; format: functional, organism-based
Staphylococcus aureus [4] = assay: Antibacterial activity against methicillin-resistant Staphylococcus aureus clinical isolate 16 infected in female KM mouse skin abscess model assessed as effect on abscess in back skin at 5 mg/kg, sc measured after 24 hrs; format: functional, organism-based
[5] = Toxicity in female KM mouse skin abscess model infected with methicillin-resistant Staphylococcus aureus clinical isolate 16 assessed as effect on liver at 5 mg/kg, sc measured after 24 hrs by H and E staining based analysis; format: organism-based; settings: in vivo
[6] = Toxicity in female KM mouse skin abscess model infected with methicillin-resistant Staphylococcus aureus clinical isolate 16 assessed as histological abnormalities in liver at 5 mg/kg, sc measured after 24 hrs by H and E staining based analysis; format: organism-based; settings: in vivo
Staphylococcus aureus [7] = assay: Antibacterial activity against methicillin-resistant Staphylococcus aureus clinical isolate 16 infected in female KM mouse skin abscess model assessed as reduction in IL-6 level at 5 mg/kg, sc measured after 24 hrs by ELISA method; format: functional, organism-based
Staphylococcus aureus [8] = assay: Antibacterial activity against methicillin-resistant Staphylococcus aureus clinical isolate 16 infected in female KM mouse skin abscess model assessed as effect on abscess in intradermal tissue at 5 mg/kg, sc measured after 24 hrs; format: functional, organism-based
Staphylococcus aureus [9] = assay: Antibacterial activity against methicillin-resistant Staphylococcus aureus clinical isolate 16 infected in female KM mouse skin abscess model assessed as reduction in inflammatory cells at 5 mg/kg, sc measured after 24 hrs by H and E staining based analysis; format: functional, organism-based
[10] = Toxicity in female KM mouse skin abscess model infected with methicillin-resistant Staphylococcus aureus clinical isolate 16 assessed as effect on heart at 5 mg/kg, sc measured after 24 hrs by H and E staining based analysis; format: organism-based; settings: in vivo
[11] = Toxicity in female KM mouse skin abscess model infected with methicillin-resistant Staphylococcus aureus clinical isolate 16 assessed as histological abnormalities in heart at 5 mg/kg, sc measured after 24 hrs by H and E staining based analysis; format: organism-based; settings: in vivo
Staphylococcus aureus [12] = assay: Antibacterial activity against methicillin-resistant Staphylococcus aureus clinical isolate 16 infected in female KM mouse skin abscess model assessed as reduction in TNF-alpha level at 5 mg/kg, sc measured after 24 hrs by ELISA method; format: functional, organism-based
[13] = Toxicity in female KM mouse skin abscess model infected with methicillin-resistant Staphylococcus aureus clinical isolate 16 assessed as histological abnormalities in lung at 5 mg/kg, sc measured after 24 hrs by H and E staining based analysis; format: organism-based; settings: in vivo
[14] = Toxicity in female KM mouse skin abscess model infected with methicillin-resistant Staphylococcus aureus clinical isolate 16 assessed as effect on spleen at 5 mg/kg, sc measured after 24 hrs by H and E staining based analysis; format: organism-based; settings: in vivo
Staphylococcus aureus [15] = assay: Bactericidal activity against methicillin-resistant Staphylococcus aureus clinical isolate 16 assessed as eradication of bacteria at 8 times MIC measured after 8 hrs by time-kill assay; format: functional, organism-based
Staphylococcus aureus [16] = assay: Bactericidal activity against Staphylococcus aureus ATCC 29213 assessed as eradication of bacteria at 8 times MIC measured after 8 hrs by time-kill assay; format: functional, organism-based
[17] = Toxicity in female KM mouse skin abscess model infected with methicillin-resistant Staphylococcus aureus clinical isolate 16 assessed as effect on lung at 5 mg/kg, sc measured after 24 hrs by H and E staining based analysis; format: organism-based; settings: in vivo
Staphylococcus aureus [18] = assay: Antibacterial activity against methicillin-resistant Staphylococcus aureus clinical isolate 16 infected in female KM mouse skin abscess model assessed as log reduction in bacterial load at 5 mg/kg, sc measured after 24 hrs (reference value: 8.508 log10CFU/g); format: functional
[19] = Toxicity in female KM mouse skin abscess model infected with methicillin-resistant Staphylococcus aureus clinical isolate 16 assessed as histological abnormalities in spleen at 5 mg/kg, sc measured after 24 hrs by H and E staining based analysis; format: organism-based; settings: in vivo
[20] = Toxicity in female KM mouse skin abscess model infected with methicillin-resistant Staphylococcus aureus clinical isolate 16 assessed as effect on kidney at 5 mg/kg, sc measured after 24 hrs by H and E staining based analysis; format: organism-based; settings: in vivo

Measured: Activity

CN[C@H](CC(C)C)C(=O)N[C@H]1C(=O)N[C@@H](CC(N)=O)C(=O)N[C@H]2C(=O)N[C@H]3C(=O)N[C@H](C(=O)N[C@H](C(=O)O)c4cc(O)cc(O)c4-c4cc3ccc4O)[C@H](O)c3ccc(c(Cl)c3)Oc3cc2cc(c3O[C@@H]2O[C@H](CO)[C@@H](O)[C@H](O)[C@H]2O[C@H]2C[C@](C)(N)[C@H](O)[C@H](C)O2)Oc2ccc(cc2Cl)[C@H]1O [VANCOMYCIN]
98.93%: Staphylococcus aureus [1]
1.922 log10CFU/g: Staphylococcus aureus [18]
inactive: Staphylococcus aureus [15] | Staphylococcus aureus [16]
active: Staphylococcus aureus [3] | Staphylococcus aureus [4] | Staphylococcus aureus [7] | Staphylococcus aureus [8] | Staphylococcus aureus [9] | Staphylococcus aureus [12]
Non-Toxic: all other assays above
